Test system: TS mRNA
Assay: Inhibition of TS expression by siRNA in DLD-1/5FU cells, Taqman real-time PCR
Type: cell-based, human
Details: 72 hours after transfection; for effects of inhibiting TS expression (in words): siRNA 25 nM
Method: The DLD-1/5FU human colorectal cancer cell lines (Int. J. Oncol., 2000; 17: 277-83) that had been resported to be resistant to 5-FU were cultured in a 6-cm culture dish for 24 hours until the cells reached 50% to 60% confluence.
Subsequently, siRNA molecules (i.e., TS-siRNA1 molecules (sense strand: SEQ ID NO: 1; antisense strand: SEQ ID NO: 2), TS-siRNA2 molecules (sense strand: SEQ ID NO: 3; antisense strand: SEQ ID NO: 4), and TS-siRNA3 molecules (sense strand: SEQ ID NO: 5; antisense strand: SEQ ID NO: 6)) were chemically synthesized, and 2.5 ml of a solution containing each of the above siRNA molecules (final concentration: 25 nM) and 25 μl of TransIT-TKO Transfection Reagent (Minis) was transfected into the above cells in accordance with a conventional technique. Scrambled siRNA (TS-Scra1) was used as a negative control.
The effects of siRNA molecules on inhibition of TS expression were inspected via Taqman real-time PCR (ABI PRISM 7700 Sequence Detection System; Applied Biosystems) 72 hours after transfection. The Assays-on-Demand Gene Expression Assay Mix (assay ID Hs00426591_ml; PCR product size: 87 bp; Applied Biosystems) was used for TS primers and probes. GAPDH was used as the internal standard (Assays-on-Demand Gene Expression System; assay ID: Hs99999905_ml; PCR product size: 122 bp; Applied Biosystems).

Substance	effects of inhibiting TS expression (in words)	effects on inhibition of TS expression (siRNA final concentration 25 nM, GAPDH internal standard) [%]
TS-siRNA3: chemically synthesized siRNA targeting TS; sense strand SEQ ID NO: 5, antisense strand SEQ ID NO: 6 (sense CGAUCAUGAUGUAGAGUGU; antisense ACACUCUACAUCAUGAUCG; listed as RNA, chemistry not given here)	exhibited effects of inhibiting TS expression	–
TS-siRNA1: chemically synthesized siRNA targeting TS; sense strand SEQ ID NO: 1, antisense strand SEQ ID NO: 2 (sense GUAACACCAUCGAUCAUGA; antisense UCAUGAUCGAUGGUGUUAC; listed as RNA, chemistry not given here)	–	83.5±1.3
TS-siRNA2: chemically synthesized siRNA targeting TS; sense strand SEQ ID NO: 3, antisense strand SEQ ID NO: 4 (sense GAAUACAGAGAUAUGGAAU; antisense AUUCCAUAUCUCUGUAUUC; listed as RNA, chemistry not given here)	exhibited effects of inhibiting TS expression	–

Source: US8524876B2, “RNAi molecule targeting thymidylate synthase and application thereof” (Delta-Fly Pharma, Inc., priority 2009, dated 2013)
